Laboratory results: ChEMBL document CHEMBL1201862, “PubChem BioAssay data set” (2004)
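Results reflect a 48-hour exposure of cells in 96-well plates to compound at five concentrations. GI50 = concentration required for 50% inhibition of growth.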 Activity calls are given as the source filed them. Cut-off read from the data, not from the text of the source: active = GI50 up to about 1.1 µM and inactive = higher.

Legend:
Experiment in all cases: NCI-60 cell line screen, 48 h
[1] = system: BT-549
[2] = system: DMS-114
[3] = system: SNB-78
[4] = system: DMS-273
[5] = system: HOP-18
[6] = system: M19-MEL
[7] = system: LXFL 529
[8] = system: XF498

Row | Compound | GI50 [1] | further results
1 | Cc1nc2ccccc2n1CCc1nc2ccccc2s1 | > 100 µM (inactive) | 
2 | O=C(C=P(c1ccccc1)(c1ccccc1)c1ccccc1)C12CC3CC(CC(C3)C1)C2 | 18.2 µM (inactive) | 
3 | C#CC(=O)OCC#CCOC(=O)C#C | 18.6 µM (inactive) | 
4 | CCCCOCOc1ccccc1P1(=O)COc2ccccc2OC1 | 41.5 µM (inactive) | 
5 | C=C1c2nc3ccccc3n2C=C(c2ccc(C)cc2)N1c1ccc(C)cc1 | 51.6 µM (inactive) | 
6 | COC(=O)c1cc2c(cc1Cl)Sc1nnc(Nc3ccccc3)n1S2(=O)=O | 4.46 µM (inactive) | 
7 | CCCCn1c2ccccc2c2ccc3c(c21)C(=O)C=CC3=O |  | GI50 [2]: > 100 µM (inactive); GI50 [3]: > 100 µM (inactive); GI50 [4]: > 100 µM (inactive); GI50 [5]: > 100 µM (inactive); GI50 [6]: 0.185 µM (active); GI50 [7]: > 100 µM (inactive)
8 | Nc1nc(NNc2ccccc2F)cc(=O)[nH]1 | > 100 µM (inactive) | 
9 | CCOC(=O)C1=NN(c2ccc(C)cc2)C2(c3ccccc3)C=C(c3ccccc3)N(C)CCN12 (configuration not stated) | > 100 µM (inactive) | 
10 | Cc1ccc(-n2cc(-c3ccc(Cl)cc3)c3c(NNC(=S)NCc4ccccc4)ncnc32)cc1 | 17.9 µM (inactive) | 
11 | CC(C)=CCC[C@](C)(O[C@@H]1O[C@H](CO)[C@@H](O)[C@H](O)[C@H]1O)[C@H]1CC[C@]2(C)[C@@H]1[C@H](O)C[C@@H]1[C@@]3(C)CC[C@H](O)C(C)(C)[C@@H]3[C@@H](O[C@@H]3O[C@H](CO)[C@@H](O)[C@H](O)[C@H]3O[C@@H]3O[C@@H](C)[C@H](O)[C@@H](O)[C@H]3O)C[C@]12C.CC(C)=CCC[C@](C)(O[C@@H]1O[C@H](CO)[C@@H](O)[C@H](O)[C@H]1O)[C@H]1CC[C@]2(C)[C@@H]1[C@H](O)C[C@@H]1[C@@]3(C)CC[C@H](O)C(C)(C)[C@@H]3[C@@H](O[C@@H]3O[C@H](CO)[C@@H](O)[C@H](O)[C@H]3O[C@@H]3O[C@H](CO)[C@@H](O)[C@H](O)[C@H]3O)C[C@]12C | 28.2 µM (inactive) | 
12 | COc1nc(C#CC2CCCCC2)nc(OC)n1 | 3.37 µM (inactive) | 
13 | CC1(C)COC(c2cccc(C3=NC(C)(C)CO3)c2)=N1 | > 100 µM (inactive) | 
14 | Cn1c(=O)c2c(nc3n(Cc4ccccc4)c(=O)c(NCCCBr)cn23)n(C)c1=O | > 100 µM (inactive) | 
15 | O=C(O)CN1CCN2CCOCCOCCN(CC1)CCN(CC(=O)O)CC2 | > 100 µM (inactive) | 
16 | CCC/N=C/c1c(O)c(O)c(C(C)C)c2cc(C)c(-c3c(C)cc4c(C(C)C)c(O)c(O)c(/C=N/CCC)c4c3O)c(O)c12 |  | GI50 [2]: 1.71 µM (inactive); GI50 [3]: 2.58 µM (inactive); GI50 [6]: 4.05 µM (inactive); GI50 [7]: 3.73 µM (inactive)
17 | CCN(CC)CCCNc1c2cc(OC)ccc2nc2cccc([N+](=O)[O-])c12 | 0.2 µM (active) | 
18 | CC(=O)OCC1OC(SC2=N/C(=C\c3cc4c(=O)c5ccccc5sc4s3)C(=O)N2c2ccccc2)C(OC(C)=O)C(OC(C)=O)C1OC(C)=O (configuration not stated) | 63.8 µM (inactive) | 
19 | CCc1c(O)nc(Nc2nc3ccccc3[nH]2)[nH]c1=O | > 100 µM (inactive) | 
20 | NS(=O)(=O)c1ccc(NC(=O)Nc2ccccc2F)cc1 | > 100 µM (inactive) | 
21 | Cc1ccc(N2C(=O)CS/C2=C(\C#N)c2nc3ccccc3[nH]2)cc1 |  | GI50 [2]: > 100 µM (inactive); GI50 [4]: > 100 µM (inactive); GI50 [5]: > 100 µM (inactive); GI50 [6]: > 100 µM (inactive); GI50 [7]: > 100 µM (inactive); GI50 [8]: > 100 µM (inactive)
22 | Cc1ccccc1SC(/C=C/NNC1=NN=C(c2ccccc2)C(c2ccccc2)N1)c1ccccc1 (configuration not stated) |  | GI50 [2]: 22.9 µM (inactive); GI50 [3]: 22 µM (inactive); GI50 [4]: 35.7 µM (inactive); GI50 [6]: 26 µM (inactive); GI50 [8]: 34.7 µM (inactive)
23 | COCOc1cc(OC)ccc1C/C=N/O | > 100 µM (inactive) | 
24 | O=C1C(Cl)=C(Oc2ccc([N+](=O)[O-])cc2)C(=O)c2c(O)ccc(O)c21 | 49.3 µM (inactive) | 
25 | CC/C(Cl)=N\OC(=O)Nc1ccc(F)c(Cl)c1 | 16.6 µM (inactive) | 
